Laboratory results taken from ChEMBL document CHEMBL3352306, “Synthesis and antitumor activity of feruloyl and caffeoyl derivatives” (Bioorg Med Chem Lett, 2014).
The source made the active and inactive calls. No cut-off for these calls is given here.

Experiments:
HeLa = experiment: Antitumor activity against human HeLa cells assessed as inhibition of cell growth by MTT assay; format: functional, cell-based
SiHa = experiment: Antitumor activity against human SiHa cells assessed as inhibition of cell growth by MTT assay; format: functional, cell-based
BeWo = experiment: Antitumor activity against human Bewo cells assessed as inhibition of cell growth by MTT assay; format: functional, cell-based
[1] = Antitumor activity against human HL60 cells assessed as inhibition of cell growth by MTT assay; format: functional, cell-based; conditions: HL-60
[2] = Antitumor activity against human SGC7901 cells assessed as inhibition of cell growth by MTT assay; format: functional, cell-based; conditions: SGC-7901
HepG2 = experiment: Antitumor activity against human HepG2 cells assessed as inhibition of cell growth by MTT assay; format: functional, cell-based
[3] = Antitumor activity against human Bel7404 cells assessed as inhibition of cell growth by MTT assay; format: functional, cell-based; conditions: BEL-7404
A549 = experiment: Antitumor activity against human A549 cells assessed as inhibition of cell growth by MTT assay; format: functional, cell-based
[4] = Antitumor activity against human […] cells assessed as inhibition of cell growth by MTT assay; format: functional, cell-based
MCF7 = experiment: Antitumor activity against human MCF7 cells assessed as inhibition of cell growth by MTT assay; format: functional, cell-based
HL-60 [5] = experiment: Induction of cell morphological changes in human HL60 cells at 2.5 to 10 ug/mL; format: functional, cell-based
HL-60 [6] = experiment: Induction of apoptosis in human HL60 cells at 0.5 to 2 ug/mL by flow cytometry; format: functional, cell-based
CCRF S-180 = experiment: Antitumor activity against mouse S180 cells implanted in mouse assessed as inhibition of tumor growth at 40 mg/kg; format: functional

SMILES	IC50 (HeLa)	IC50 (HepG2)	IC50 (A549)	IC50 (MCF7)	IC50 (SiHa)	IC50 (BeWo)	IC50 [1]	IC50 [2]	IC50 [3]	IC50 [4]	Activity (HL-60 [5])	Activity (HL-60 [6])	inhibition in vivo at 40 mg/kg (CCRF S-180)
O=C(/C=C/c1ccc(O)c(O)c1)OC12CC3CC(CC(C3)C1)C2	> 100 µM	30 µM			> 100 µM	> 100 µM	8.15 µM	29.7 µM					
O=C(/C=C/c1cc(O)c(O)c(Br)c1)OCCc1ccccc1	17.5 µM	4.44 µM			28.5 µM	8.24 µM	8.49 µM	6.75 µM					
O=C(/C=C/c1ccc(O)c(O)c1)OCc1ccccc1 [BENZYL CAFFEATE]	23.5 µM	85.6 µM			74.3 µM	28.2 µM	8 µM	70.5 µM					
O=C(/C=C/c1ccc(O)c(O)c1)OCCc1ccccc1 [CAFFEIC ACID PHENETHYL ESTER]	38 µM	40.9 µM			66.9 µM	2.96 µM	16.6 µM	14.3 µM					
COc1cccc2c1C(=O)c1c(O)c3c(c(O)c1C2=O)C[C@@](O)(C(=O)CO)C[C@@H]3O[C@H]1C[C@H](N)[C@H](O)[C@H](C)O1 [DOXORUBICIN]	0.33 µM				2.04 µM	1.07 µM	0.42 µM						
COc1c(O)ccc(/C=C/C(=O)NC23CC4CC(CC(C4)C2)C3)c1[N+](=O)[O-]	91.3 µM				38.9 µM	26.7 µM	73.2 µM						
C#CCOC(=O)/C=C/c1ccc(O)c(O)c1	19.2 µM	> 100 µM			39.1 µM	8.99 µM	12.3 µM	> 100 µM					
CCCCCCCOC(=O)/C=C/c1ccc(O)c(O)c1	21.5 µM	44.7 µM			35.8 µM	2.77 µM	4.46 µM	34 µM					
CC1(C)C2CCC1(C)C(OC(=O)/C=C/c1cc(O)c(O)c(Cl)c1)C2 (stereo unspecified)	38.7 µM				33.8 µM	51.9 µM	18.6 µM	69.5 µM					
COc1cc(/C=C/C(=O)NC23CC4CC(CC(C4)C2)C3)cc([N+](=O)[O-])c1O	66.8 µM				59.5 µM	68.2 µM	18.7 µM						
O=C(/C=C/c1cc(O)c(O)c([N+](=O)[O-])c1)OC12CC3CC(CC(C3)C1)C2	1.28 µM	3.84 µM	4.41 µM	4.09 µM	6.74 µM	5.63 µM	4.07 µM	4.6 µM	21.4 µM	8.22 µM	Active	Active	36.7%
O=C(/C=C/c1cc(O)c(O)c(Br)c1)NC12CC3CC(CC(C3)C1)C2	33.2 µM				> 100 µM	60.9 µM	> 100 µM						
CC1(C)C2CCC1(C)C(OC(=O)/C=C/c1cc(O)c(O)c(Br)c1)C2 (stereo unspecified)	22.7 µM				29 µM	20 µM	15.2 µM						
CCCCOC(=O)/C=C/c1ccc(O)c(O)c1 [BUTYL CAFFEATE]	40.8 µM	> 100 µM			41 µM	5.42 µM	7.54 µM	> 100 µM					
O=C(/C=C/c1cc(O)c(O)c(Cl)c1)OCCc1ccccc1							7.01 µM	8.18 µM					
CCC(C)OC(=O)/C=C/c1ccc(O)c(O)c1 (stereo unspecified)	13.8 µM	95.8 µM			33.8 µM	3.18 µM	12.5 µM	> 100 µM					
O=P1(N(CCCl)CCCl)NCCCO1 (stereo unspecified) [CYCLOPHOSPHAMIDE ANHYDROUS]													54.8%
CC(C)OC(=O)/C=C/c1ccc(O)c(O)c1	30.1 µM	91.6 µM			48.2 µM	5.9 µM	11.8 µM	97.7 µM					
O=C(/C=C/c1ccc(O)c(O)c1)Oc1ccc2ccccc2c1	8.04 µM	14.8 µM			39.5 µM	0.36 µM	3.4 µM	44.8 µM					
CC(C)(C)OC(=O)/C=C/c1ccc(O)c(O)c1	16.7 µM	69.7 µM			42 µM	3.47 µM	7.92 µM	80 µM					
COc1cc(/C=C/C(=O)OC23CC4CC(CC(C4)C2)C3)ccc1O	59.9 µM				> 100 µM	70 µM	92.4 µM						
CCCCCCCCCCCCCCCCCCOC(=O)/C=C/c1ccc(O)c(O)c1	> 100 µM	4.95 µM			> 100 µM	> 100 µM	10.2 µM	17.2 µM					
O=C(/C=C/c1cc(O)c(O)c(Cl)c1)NC12CC3CC(CC(C3)C1)C2	50 µM				18.9 µM	68.4 µM	35.6 µM						

Continued, in another order:

IC50 (HeLa)	IC50 (HepG2)	IC50 (A549)	IC50 (MCF7)	SMILES	IC50 (SiHa)	IC50 (BeWo)	IC50 [1]	IC50 [2]	IC50 [3]	IC50 [4]	Activity (HL-60 [5])	Activity (HL-60 [6])	inhibition in vivo at 40 mg/kg (CCRF S-180)
23.6 µM	38.1 µM			CC(C)(COC(=O)/C=C/c1ccc(O)c(O)c1)[N+](=O)[O-]	30.5 µM	7.26 µM	9.32 µM	> 100 µM					
13.9 µM				CC1(C)C2CCC1(C)C(OC(=O)/C=C/c1ccc(O)c(O)c1[N+](=O)[O-])C2 (stereo unspecified)	51.8 µM	9.31 µM	52.9 µM						
> 100 µM				COc1cc(/C=C/C(=O)NC23CC4CC(CC(C4)C2)C3)cc(Br)c1O	82.4 µM	41.4 µM	49.8 µM						
34.9 µM	54.3 µM			CCCCCCCCOC(=O)/C=C/c1ccc(O)c(O)c1	45.9 µM	13.1 µM	8.29 µM	56 µM					
29.8 µM	50.8 µM			O=C(/C=C/c1ccc(O)c(O)c1)Oc1ccccc1	52.3 µM	30.7 µM	10.8 µM	90.3 µM					
> 100 µM				COc1cc(/C=C/C(=O)NC23CC4CC(CC(C4)C2)C3)ccc1O	67.6 µM	> 100 µM	> 100 µM						
10.9 µM				O=C(/C=C/c1ccc(O)c(O)c1[N+](=O)[O-])OCCc1ccccc1	17.2 µM	4.38 µM	18.2 µM						
20.6 µM	31.4 µM			CC1(C)C2CCC1(C)C(OC(=O)/C=C/c1ccc(O)c(O)c1)C2 (stereo unspecified)	73.7 µM	35.9 µM	3.35 µM	12 µM					
38.2 µM	24.1 µM			CCCCCCC(C)OC(=O)/C=C/c1ccc(O)c(O)c1 (stereo unspecified)	49.9 µM	0.41 µM	5.1 µM	17.4 µM					
23.9 µM	45.5 µM			O=C(/C=C/c1ccc(O)c(O)c1)OC1CCCCC1	51.5 µM	2.75 µM	8.32 µM	95.5 µM					
52.5 µM	81.5 µM			COC(=O)/C=C/c1ccc(O)c(O)c1 [METHYLCAFFEATE]	60.3 µM	17.3 µM	12.3 µM	> 100 µM					
67.2 µM	> 100 µM			C=CCOC(=O)/C=C/c1ccc(O)c(O)c1	30.7 µM	8.64 µM	11.5 µM	89.2 µM					
98.4 µM				COc1cc(/C=C/C(=O)NC23CC4CC(CC(C4)C2)C3)cc(Cl)c1O	34.8 µM	44.5 µM	67.9 µM						
28.6 µM	> 100 µM			CCCOC(=O)/C=C/c1ccc(O)c(O)c1	44.2 µM	5.18 µM	11.8 µM	> 100 µM					
23.3 µM	64 µM			CCOC(=O)/C=C/c1ccc(O)c(O)c1 [ETHYL CAFFEATE]	34.1 µM	6.2 µM	8.94 µM	> 100 µM					
	> 100 µM			O=C(/C=C/c1ccc(O)c(O)c1)O[C@H]1C[C@@](O)(C(=O)O)C[C@H](O)[C@@H]1O			> 100 µM	> 100 µM					
31.6 µM	48.4 µM			O=C(/C=C/c1ccc(O)c(O)c1)OCCCCc1ccccc1	88.7 µM	5.8 µM	11.2 µM	40.1 µM					
10.2 µM	30.1 µM			O=C(/C=C/c1ccc(O)c(O)c1)NC12CC3CC(CC(C3)C1)C2	41.3 µM	1.09 µM	8.18 µM	29.8 µM					
